Test results taken from patent publication US8680133B2, “Alkyl indole-3-carbinol-derived antitumor agents” (The Ohio State University Research Foundation, priority 2009, dated 2014).

Key:
LOX IMVI = test: NCI60 screening, Melanoma, LOX IMVI; assay type: cell-based, human
HOP-62 = test: NCI60 screening, Non-Small Cell Lung Cancer, HOP-62; assay type: cell-based, human
HOP-92 = test: NCI60 screening, Non-Small Cell Lung Cancer, HOP-92; assay type: cell-based, human
CAKI-1 = test: NCI60 screening, Renal Cancer, CAKI-1; assay type: cell-based, human
IGROV1 = test: NCI60 screening, Ovarian Cancer, IGROV1; assay type: cell-based, human
RXF 393 = test: NCI60 screening, Renal Cancer, RXF 393; assay type: cell-based, human
MALME-3M = test: NCI60 screening, Melanoma, MALME-3M; assay type: cell-based, human
OVCAR-5 = test: NCI60 screening, Ovarian Cancer, OVCAR-5; assay type: cell-based, human
TK-10 = test: NCI60 screening, Renal Cancer, TK-10; assay type: cell-based, human
MDA-MB-231/ATCC = test: NCI60 screening, Breast Cancer, MDA-MB-231/ATCC; assay type: cell-based, human
HCT-116 = test: NCI60 screening, Colon Cancer, HCT-116; assay type: cell-based, human
MOLT-4 = test: NCI60 screening, Leukemia, MOLT-4; assay type: cell-based, human
MDA-MB-468 = test: NCI60 screening, Breast Cancer, MDA-MB-468; assay type: cell-based, human
SK-MEL-2 = test: NCI60 screening, Melanoma, SK-MEL-2; assay type: cell-based, human
[1] = Body weight of PC-3 xenograft mice receiving the experimental diet; assay type: in vivo, nude mice; settings: 450 ppm in diet, compared to controls
Procedure: Given the increased potency of OSU-A9M compared to the other lead derivatives, an experimental diet was formulated. An AIN-76A rodent diet (American Institute of Nutrition; including primarily casein, sucrose, and corn starch) containing 450 ppm OSU-A9M was made to deliver approximately 50 mg/kg of drug per day to each mouse estimated by food consumption and body weight measurements.

NCI-H460 = test: NCI60 screening, Non-Small Cell Lung Cancer, NCI-H460; assay type: cell-based, human
SF-295 = test: NCI60 screening, CNS Cancer, SF-295; assay type: cell-based, human
[2] = Homo sapiens, read-out: LC50 (the source's name)

Cc1ccc2c(c1)c(CO)cn2S(=O)(=O)c1ccc(Cl)c([N+](=O)[O-])c1 [OSU-A9M, [1-(4-chloro-3-nitro-benzenesulfonyl)-5-methyl-1H-indol-3-yl]-methanol]
TGI (LOX IMVI): 2.86E−7 | GI50 (LOX IMVI; Homo sapiens): 138 nM | CC50 (LOX IMVI; [2]): 594 nM | Percent Growth (LOX IMVI; Log10 Concentration −4.0): −100% | Percent Growth (LOX IMVI; Log10 Concentration −5.0): −100% | Percent Growth (LOX IMVI; Log10 Concentration −6.0): −86% | Percent Growth (LOX IMVI; Log10 Concentration −7.0): 72% | Percent Growth (LOX IMVI; Log10 Concentration −8.0): 84% | TGI (HOP-62): 3.11E−6 | GI50 (HOP-62; Homo sapiens): 1740 nM | CC50 (HOP-62; [2]): 5580 nM | Percent Growth (HOP-62; Log10 Concentration −4.0): −99% | Percent Growth (HOP-62; Log10 Concentration −5.0): −100% | Percent Growth (HOP-62; Log10 Concentration −6.0): 97% | Percent Growth (HOP-62; Log10 Concentration −7.0): 95% | Percent Growth (HOP-62; Log10 Concentration −8.0): 98% | TGI (HOP-92): 2.67E−6 | GI50 (HOP-92; Homo sapiens): 1310 nM | CC50 (HOP-92; [2]): 5430 nM | Percent Growth (HOP-92; Log10 Concentration −4.0): −97% | Percent Growth (HOP-92; Log10 Concentration −5.0): −93% | Percent Growth (HOP-92; Log10 Concentration −6.0): 69% | Percent Growth (HOP-92; Log10 Concentration −7.0): 76% | Percent Growth (HOP-92; Log10 Concentration −8.0): 92% | TGI (CAKI-1): 2.90E−6 | GI50 (CAKI-1; Homo sapiens): 1480 nM | CC50 (CAKI-1; [2]): 5700 nM | Percent Growth (CAKI-1; Log10 Concentration −4.0): −95% | Percent Growth (CAKI-1; Log10 Concentration −5.0): −92% | Percent Growth (CAKI-1; Log10 Concentration −6.0): 79% | Percent Growth (CAKI-1; Log10 Concentration −7.0): 95% | Percent Growth (CAKI-1; Log10 Concentration −8.0): 92% | TGI (IGROV1): 1.23E−6 | GI50 (IGROV1; Homo sapiens, IGROV-1): 349 nM | CC50 (IGROV1; Homo sapiens, IGROV-1, read-out: LC50 (the source's name)): 3500 nM | Percent Growth (IGROV1; Log10 Concentration −4.0): −100% | Percent Growth (IGROV1; Log10 Concentration −5.0): −100% | Percent Growth (IGROV1; Log10 Concentration −6.0): 10% | Percent Growth (IGROV1; Log10 Concentration −7.0): 98% | Percent Growth (IGROV1; Log10 Concentration −8.0): 86% | TGI (RXF 393): 4.10E−6 | GI50 (RXF 393; Homo sapiens): 1940 nM | CC50 (RXF 393; [2]): 8650 nM | Percent Growth (RXF 393; Log10 Concentration −4.0): −85% | Percent Growth (RXF 393; Log10 Concentration −5.0): −60% | Percent Growth (RXF 393; Log10 Concentration −6.0): 94% | Percent Growth (RXF 393; Log10 Concentration −7.0): 102% | Percent Growth (RXF 393; Log10 Concentration −8.0): 101% | GI50 (MALME-3M; Homo sapiens, Malme-3M): 1870 nM | CC50 (MALME-3M; Homo sapiens, Malme-3M, read-out: LC50 (the source's name)): 9000 nM | TGI (MALME-3M; MALME-3M): 4.10E−6 | Percent Growth (MALME-3M; MALME-3M, Log10 Concentration −4.0): −75% | Percent Growth (MALME-3M; MALME-3M, Log10 Concentration −5.0): −57% | Percent Growth (MALME-3M; MALME-3M, Log10 Concentration −6.0): 90% | Percent Growth (MALME-3M; MALME-3M, Log10 Concentration −7.0): 78% | Percent Growth (MALME-3M; MALME-3M, Log10 Concentration −8.0): 83% | TGI (OVCAR-5): 3.04E−6 | GI50 (OVCAR-5; Homo sapiens): 1680 nM | CC50 (OVCAR-5; [2]): 5510 nM | Percent Growth (OVCAR-5; Log10 Concentration −4.0): −100% | Percent Growth (OVCAR-5; Log10 Concentration −5.0): −100% | Percent Growth (OVCAR-5; Log10 Concentration −6.0): 93% | Percent Growth (OVCAR-5; Log10 Concentration −7.0): 92% | Percent Growth (OVCAR-5; Log10 Concentration −8.0): 95% | TGI (TK-10): 2.98E−6 | GI50 (TK-10; Homo sapiens): 1560 nM | CC50 (TK-10; [2]): 5710 nM | Percent Growth (TK-10; Log10 Concentration −4.0): −89% | Percent Growth (TK-10; Log10 Concentration −5.0): −93% | Percent Growth (TK-10; Log10 Concentration −6.0): 84% | Percent Growth (TK-10; Log10 Concentration −7.0): 83% | Percent Growth (TK-10; Log10 Concentration −8.0): 90% | TGI (MDA-MB-231/ATCC): 2.96E−6 | GI50 (MDA-MB-231/ATCC; Homo sapiens): 1440 nM | CC50 (MDA-MB-231/ATCC; [2]): 6100 nM | Percent Growth (MDA-MB-231/ATCC; Log10 Concentration −4.0): −78% | Percent Growth (MDA-MB-231/ATCC; Log10 Concentration −5.0): −84% | Percent Growth (MDA-MB-231/ATCC; Log10 Concentration −6.0): 75% | Percent Growth (MDA-MB-231/ATCC; Log10 Concentration −7.0): 91% | Percent Growth (MDA-MB-231/ATCC; Log10 Concentration −8.0): 98% | TGI (HCT-116): 1.57E−6 | GI50 (HCT-116; Homo sapiens): 461 nM | LC50 (HCT-116; Homo sapiens): 3970 nM | Percent Growth (HCT-116; Log10 Concentration −4.0): −100% | Percent Growth (HCT-116; Log10 Concentration −5.0): −100% | Percent Growth (HCT-116; Log10 Concentration −6.0): 24% | Percent Growth (HCT-116; Log10 Concentration −7.0): 100% | Percent Growth (HCT-116; Log10 Concentration −8.0): 101% | TGI (MOLT-4): 1.96E−6 | GI50 (MOLT-4; Homo sapiens): 334 nM | LC50 (MOLT-4; Homo sapiens): 18300 nM | Percent Growth (MOLT-4; Log10 Concentration −4.0): −64% | Percent Growth (MOLT-4; Log10 Concentration −5.0): −45% | Percent Growth (MOLT-4; Log10 Concentration −6.0): 19% | Percent Growth (MOLT-4; Log10 Concentration −7.0): 85% | Percent Growth (MOLT-4; Log10 Concentration −8.0): 92% | TGI (MDA-MB-468): 2.18E−6 | GI50 (MDA-MB-468; Homo sapiens): 979 nM | CC50 (MDA-MB-468; [2]): 4780 nM | Percent Growth (MDA-MB-468; Log10 Concentration −4.0): −95% | Percent Growth (MDA-MB-468; Log10 Concentration −5.0): −97% | Percent Growth (MDA-MB-468; Log10 Concentration −6.0): 50% | Percent Growth (MDA-MB-468; Log10 Concentration −7.0): 86% | Percent Growth (MDA-MB-468; Log10 Concentration −8.0): 90% | TGI (SK-MEL-2): 3.04E−6 | GI50 (SK-MEL-2; Homo sapiens): 1600 nM | CC50 (SK-MEL-2; [2]): 5780 nM | Percent Growth (SK-MEL-2; Log10 Concentration −4.0): −93% | Percent Growth (SK-MEL-2; Log10 Concentration −5.0): −93% | Percent Growth (SK-MEL-2; Log10 Concentration −6.0): 86% | Percent Growth (SK-MEL-2; Log10 Concentration −7.0): 96% | Percent Growth (SK-MEL-2; Log10 Concentration −8.0): 102% | Body weights of mice receiving the experimental diet [1]: unchanged compared to controls | TGI (NCI-H460): 3.36E−6 | GI50 (NCI-H460; Homo sapiens): 1830 nM | LC50 (concentration killing 50% of cells) (NCI-H460; Homo sapiens): 6180 nM | Percent Growth (NCI-H460; Log10 Concentration −4.0): −89% | Percent Growth (NCI-H460; Log10 Concentration −5.0): −89% | Percent Growth (NCI-H460; Log10 Concentration −6.0): 100% | Percent Growth (NCI-H460; Log10 Concentration −7.0): 99% | Percent Growth (NCI-H460; Log10 Concentration −8.0): 96% | TGI (SF-295): 3.07E−6 | GI50 (SF-295; Homo sapiens): 1620 nM | CC50 (SF-295; [2]): 5810 nM | Percent Growth (SF-295; Log10 Concentration −4.0): −86% | Percent Growth (SF-295; Log10 Concentration −5.0): −93% | Percent Growth (SF-295; Log10 Concentration −6.0): 88% | Percent Growth (SF-295; Log10 Concentration −7.0): 91% | Percent Growth (SF-295; Log10 Concentration −8.0): 77%
